Test results published in US20210127673A1, “HERBICIDES” (SYNGENTA PARTICIPATIONS AG, priority 2016, published 2021).

Tests used:
Format in all cases: in vivo
Settings in all cases: evaluated after 13 days
[1] = system: Triticum aestivium (TRZAW); assay: Pre-emergence herbicidal activity, Triticum aestivium; design: key: 5=total damage to plant; 0=no damage to plant
Outline: (§1)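 Pots of seeds were sprayed one day after sowing (pre-emergence) with compound in acetone/water (50:50) plus 0.5% Tween 20, then grown in a glasshouse at 24/16 °C day/night, 14 h light, 65% humidity. Damage scored 0–5 (5 = total damage) after 13 days.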

Avena fatua (AVEFA) [2] = assay: Pre-emergence herbicidal activity, Avena fatua; design: key: 5=total damage to plant; 0=no damage to plant
Outline: as §1

[3] = system: Alopecurus myosuroides (ALOMY); assay: Pre-emergence herbicidal activity, Alopecurus myosuroides; design: key: 5=total damage to plant; 0=no damage to plant
Outline: as §1

[4] = system: Echinochloa crus-galli (ECHCG); assay: Pre-emergence herbicidal activity, Echinochloa crus-galli; design: key: 5=total damage to plant; 0=no damage to plant
Outline: as §1

Lolium perenne (LOLPE) [5] = assay: Pre-emergence herbicidal activity, Lolium perenne; design: key: 5=total damage to plant; 0=no damage to plant
Outline: as §1

Setaria faberi (SETFA) [6] = assay: Pre-emergence herbicidal activity, Setaria faberi; design: key: 5=total damage to plant; 0=no damage to plant
Outline: as §1

[7] = system: Triticum aestivium (TRZAW); assay: Post-emergence herbicidal activity, Triticum aestivium; design: key: 5=total damage to plant; 0=no damage to plant
Outline: (§2)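 Pot-grown plants sprayed 8 days after sowing with compound in acetone/water (50:50) containing 0.5% Tween 20, in a glasshouse at 24/16 °C day/night, 14 h light, 65% humidity. Damage scored 13 days after spraying on a 0–5 scale (5 = total damage, 0 = none).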

Avena fatua (AVEFA) [8] = assay: Post-emergence herbicidal activity, Avena fatua; design: key: 5=total damage to plant; 0=no damage to plant
Outline: as §2

[9] = system: Alopecurus myosuroides (ALOMY); assay: Post-emergence herbicidal activity, Alopecurus myosuroides; design: key: 5=total damage to plant; 0=no damage to plant
Outline: as §2

[10] = system: Echinochloa crus-galli (ECHCG); assay: Post-emergence herbicidal activity, Echinochloa crus-galli; design: key: 5=total damage to plant; 0=no damage to plant
Outline: as §2

Lolium perenne (LOLPE) [11] = assay: Post-emergence herbicidal activity, Lolium perenne
Outline: as §2

Setaria faberi (SETFA) [12] = assay: Post-emergence herbicidal activity, Setaria faberi; design: key: 5=total damage to plant; 0=no damage to plant
Outline: as §2

| SMILES | Control of TRAZW after pre-emergence application (score 0-5) ([1]; 1000 g/ha) | Control of AVEFA after pre-emergence application (score 0-5) (Avena fatua (AVEFA) [2]; 1000 g/ha) | Control of ALOMY after pre-emergence application (score 0-5) ([3]; 1000 g/ha) | Control of ECHCG after pre-emergence application (score 0-5) ([4]; 1000 g/ha) | Control of LOLPE after pre-emergence application (score 0-5) (Lolium perenne (LOLPE) [5]; 1000 g/ha) | Control of SETFA after pre-emergence application (score 0-5) (Setaria faberi (SETFA) [6]; 1000 g/ha) | Control of TRAZW after post-emergence application (score 0-5) ([7]; 1000 g/ha) | Control of AVEFA after post-emergence application (score 0-5) (Avena fatua (AVEFA) [8]; 1000 g/ha) | Control of ALOMY after post-emergence application (score 0-5) ([9]; 1000 g/ha) | Control of ECHCG after post-emergence application (score 0-5) ([10]; 1000 g/ha) | Control of LOLPE after post-emergence application (score 0-5) (Lolium perenne (LOLPE) [11]; 1000 g/ha) | Control of SETFA after post-emergence application (score 0-5) (Setaria faberi (SETFA) [12]; 1000 g/ha) | further results |
| --- | --- | --- | --- | --- | --- | --- | --- | --- | --- | --- | --- | --- | --- |
| CSc1cncc(-c2ccc(NC(=O)OC(C)(C)C)c(C)n2)c1 [Compound B12] | 0 | 1 | 1 | 1 | 1 | 3 | 1 | 2 | 1 | 2 | 2 | 3 | – |
| O=C(Nc1ccc(-c2cncc(F)c2)nc1C(F)(F)F)NC1CC1 [Compound B89] | 0 | 2 | 0 | 4 | 1 | 5 | 1 | 4 | 0 | 5 | 2 | 5 | – |
| COC(=O)c1nc(-c2cncc(F)c2)ccc1N(C(=O)OC(C)(C)C)C(=O)OC(C)(C)C [Compound B76, methyl 3-[bis(tert-butoxycarbonyl)amino]-6-(5-fluoro-3-pyridyl)pyridine-2-carboxylate] | 0 | 0 | 0 | 1 | 0 | 3 | 0 | 0 | 0 | 1 | 1 | 3 | – |
| CC(C)CNC(=O)Nc1ccc(-c2cncc(F)c2)nc1C(F)(F)F [Compound B90] | – | – | – | – | – | – | – | – | – | – | – | – | Control of TRAZW after pre-emergence application (score 0-5) ([1]; 250 g/ha): 0; Control of AVEFA after pre-emergence application (score 0-5) (Avena fatua (AVEFA) [2]; 250 g/ha): 1; Control of ALOMY after pre-emergence application (score 0-5) ([3]; 250 g/ha): 0; Control of ECHCG after pre-emergence application (score 0-5) ([4]; 250 g/ha): 4; Control of LOLPE after pre-emergence application (score 0-5) (Lolium perenne (LOLPE) [5]; 250 g/ha): 1; Control of SETFA after pre-emergence application (score 0-5) (Setaria faberi (SETFA) [6]; 250 g/ha): 5; Control of TRAZW after post-emergence application (score 0-5) ([7]; 250 g/ha): 0; Control of AVEFA after post-emergence application (score 0-5) (Avena fatua (AVEFA) [8]; 250 g/ha): 3; Control of ALOMY after post-emergence application (score 0-5) ([9]; 250 g/ha): 0; Control of ECHCG after post-emergence application (score 0-5) ([10]; 250 g/ha): 4; Control of LOLPE after post-emergence application (score 0-5) (Lolium perenne (LOLPE) [11]; 250 g/ha): 2; Control of SETFA after post-emergence application (score 0-5) (Setaria faberi (SETFA) [12]; 250 g/ha): 5 |
| CN(C(N)=O)c1ccc(-c2cncc(F)c2)nc1C(F)(F)F [Compound B72] | 0 | 0 | 0 | 2 | 0 | 4 | 1 | 1 | 1 | 4 | 1 | 4 | – |
| O=C(Nc1ccc(-c2cncc(F)c2)nc1C(F)(F)F)OC1CCCCC1 [Compound B108] | 0 | 2 | 0 | 3 | 2 | 5 | 0 | 3 | 0 | 0 | 1 | 5 | – |
| CC(C)(C)OC(=O)N(CC1CC1)c1ccc(-c2cncc(F)c2)nc1C(F)(F)F [Compound B10] | 0 | 2 | 1 | 3 | 1 | 5 | 1 | 3 | 1 | 4 | 3 | 5 | – |
| O=C(Nc1ccc(-c2cncc(F)c2)nc1C(F)(F)F)NN1CCOCC1 [Compound B69] | 0 | 1 | 0 | 2 | 1 | 4 | 1 | 3 | 0 | 4 | 2 | 4 | – |
| N#CC1(NC(=O)Nc2ccc(-c3cncc(F)c3)nc2C(F)(F)F)CCC1 [Compound B81] | 0 | 1 | 1 | 5 | 1 | 5 | 1 | 3 | 1 | 5 | 2 | 5 | – |
| O=C(Nc1ccc(-c2cncc(F)c2)nc1C(F)(F)F)OCC1CC1 [Compound B94] | 0 | 3 | 1 | 4 | 2 | 5 | 0 | 3 | 0 | 5 | 3 | 5 | – |
